From ChEMBL document CHEMBL1201862, “PubChem BioAssay data set” (2004)
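In this assay, cells in 96-well plates receive the compound at five concentrations for 48 hours. Endpoints are linearly interpolated between the surrounding concentrations. GI50 is the concentration that inhibits growth by half.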 The source made the active and inactive calls. Cut-off read from the data, not from the text of the source: active = GI50 up to about 1.1 µM and inactive = higher.

Tests used:
Test in all cases: NCI tumour cell line growth inhibition, 48 h
A549 = test system: A549
SF-539 = test system: SF-539
SW-620 = test system: SW-620
SNB-75 = test system: SNB-75
OVCAR-8 = test system: OVCAR-8
SR = test system: SR
Malme-3M = test system: Malme-3M
HOP-62 = test system: HOP-62
RXF 393 = test system: RXF 393
EKVX = test system: EKVX
M14 = test system: M14
IGROV-1 = test system: IGROV-1
ACHN = test system: ACHN
SK-MEL-28 = test system: SK-MEL-28
MOLT-4 = test system: MOLT-4
CAKI-1 = test system: CAKI-1

Measured: GI50

CCCCCCCCCCCCCCC1OC(=O)c2ccccc21 (centres undefined)
inactive: A549 60.3 µM | SF-539 > 100 µM | SW-620 63.4 µM | SNB-75 > 100 µM | OVCAR-8 55.8 µM | SR 42.5 µM | Malme-3M > 100 µM | HOP-62 > 100 µM | RXF 393 52 µM | EKVX 39.9 µM | M14 > 100 µM | IGROV-1 89.5 µM | ACHN 43.5 µM | SK-MEL-28 > 100 µM | MOLT-4 36.7 µM

CC1=C(C)CC2(SC1)C(=O)c1ccccc1C2=O
inactive: A549 > 100 µM | SF-539 > 100 µM | SW-620 > 100 µM | SNB-75 > 100 µM | OVCAR-8 > 100 µM | SR > 100 µM | Malme-3M > 100 µM | HOP-62 > 100 µM | RXF 393 > 100 µM | M14 > 100 µM | IGROV-1 > 100 µM | CAKI-1 65.9 µM | ACHN > 100 µM | MOLT-4 > 100 µM

COc1ccccc1CCc1cc(OC)c(OC)c(OC)c1
inactive: A549 41.1 µM | SF-539 65.3 µM | SW-620 47.5 µM | SNB-75 41.6 µM | OVCAR-8 45.9 µM | Malme-3M 49.5 µM | HOP-62 > 100 µM | RXF 393 20.9 µM | EKVX 49.3 µM | M14 47.6 µM | IGROV-1 49.9 µM | CAKI-1 57.8 µM | ACHN 51.9 µM | SK-MEL-28 65.6 µM | MOLT-4 23.9 µM

CC(=O)CN(Cc1cc(C)c2c(c1)c1ccccc1n2Cc1ccccc1)S(=O)(=O)c1ccc(C)cc1
inactive: A549 > 100 µM | SF-539 > 100 µM | SW-620 > 100 µM | SNB-75 > 100 µM | OVCAR-8 > 100 µM | SR > 100 µM | Malme-3M > 100 µM | HOP-62 > 100 µM | EKVX > 100 µM | M14 > 100 µM | IGROV-1 > 100 µM | CAKI-1 > 100 µM | SK-MEL-28 > 100 µM | MOLT-4 > 100 µM

COCCOCOc1ccc(OCOCCOC)c2c1C(=O)c1ccccc1C2=O
inactive: A549 46.6 µM | SF-539 36.3 µM | SW-620 36.5 µM | SNB-75 99.3 µM | OVCAR-8 45.4 µM | Malme-3M 41.5 µM | HOP-62 > 100 µM | RXF 393 29.4 µM | EKVX 38.3 µM | M14 > 100 µM | IGROV-1 99.1 µM | CAKI-1 33.7 µM | ACHN 62.7 µM | SK-MEL-28 > 100 µM | MOLT-4 21.6 µM

CC(=O)Nc1ccc(/C=C(\NC(=O)c2ccccc2)c2nc3ccc4c(c3[nH]2)C(=O)c2ccccc2C4=O)cc1
inactive: A549 12.5 µM | SF-539 17.5 µM | SW-620 18.9 µM | SNB-75 9.51 µM | OVCAR-8 22.1 µM | Malme-3M > 100 µM | HOP-62 > 100 µM | RXF 393 4.66 µM | EKVX 24.3 µM | M14 43.1 µM | IGROV-1 7.13 µM | CAKI-1 5.02 µM | SK-MEL-28 45 µM | MOLT-4 2.88 µM

O=C(CNC(=O)OCc1ccccc1)Oc1ccccc1
inactive: A549 > 100 µM | SF-539 > 100 µM | SNB-75 > 100 µM | OVCAR-8 > 100 µM | SR > 100 µM | Malme-3M > 100 µM | HOP-62 > 100 µM | RXF 393 > 100 µM | EKVX > 100 µM | M14 > 100 µM | IGROV-1 > 100 µM | ACHN > 100 µM | SK-MEL-28 > 100 µM | MOLT-4 > 100 µM

COc1cccc(N2C(=O)C3C4C=C5c6ccccc6N(c6ccccc6)C5(C3C2=O)[C@H]2C(=O)N(c3cccc(OC)c3)C(=O)[C@@H]42)c1 (some centres undefined)
inactive: A549 > 100 µM | SF-539 > 100 µM | SW-620 > 100 µM | SNB-75 > 100 µM | OVCAR-8 > 100 µM | SR > 100 µM | Malme-3M > 100 µM | HOP-62 > 100 µM | RXF 393 > 100 µM | EKVX > 100 µM | M14 > 100 µM | IGROV-1 > 100 µM | CAKI-1 > 100 µM | MOLT-4 > 100 µM

CC(=O)OCCOCNC(=S)N/N=C(\C)c1cccs1
inactive: A549 > 100 µM | SF-539 > 100 µM | SW-620 > 100 µM | SNB-75 > 100 µM | OVCAR-8 > 100 µM | SR > 100 µM | Malme-3M > 100 µM | HOP-62 > 100 µM | RXF 393 > 100 µM | EKVX > 100 µM | M14 > 100 µM | IGROV-1 > 100 µM | ACHN > 100 µM | SK-MEL-28 > 100 µM | MOLT-4 > 100 µM

N#Cc1c(-c2ccccc2)cc(-c2cccs2)c(C#N)c1N
inactive: A549 > 100 µM | SF-539 > 100 µM | SW-620 > 100 µM | SNB-75 12.2 µM | OVCAR-8 > 100 µM | Malme-3M > 100 µM | HOP-62 > 100 µM | EKVX > 100 µM | M14 > 100 µM | IGROV-1 > 10 µM | CAKI-1 > 100 µM | ACHN > 100 µM | MOLT-4 > 100 µM

COc1ccc(-c2ccccc2)c2[nH]c3c(c12)CCNC3=O
inactive: A549 > 100 µM | SF-539 > 100 µM | SW-620 > 100 µM | SNB-75 > 100 µM | OVCAR-8 > 100 µM | SR > 100 µM | Malme-3M > 100 µM | HOP-62 > 100 µM | RXF 393 45.6 µM | EKVX > 100 µM | M14 > 100 µM | IGROV-1 > 100 µM | CAKI-1 > 100 µM | MOLT-4 > 100 µM

Cc1cc(Cl)ccc1N1C(=O)C(=O)C(c2nc3ccccc3s2)C(=O)C1=O
inactive: A549 > 100 µM | SF-539 > 100 µM | SW-620 > 100 µM | SNB-75 > 100 µM | OVCAR-8 > 100 µM | SR > 100 µM | Malme-3M > 100 µM | HOP-62 > 100 µM | EKVX > 100 µM | M14 > 100 µM | IGROV-1 > 100 µM | CAKI-1 > 100 µM | ACHN > 100 µM | SK-MEL-28 > 100 µM | MOLT-4 > 100 µM

Clc1ccc(SC(/C=C/NNC2=NN=C(c3ccccc3)C(c3ccccc3)N2)c2ccccc2)cc1 (centres undefined)
inactive: A549 29.2 µM | SF-539 26.4 µM | SW-620 33.5 µM | SNB-75 15.2 µM | OVCAR-8 28.2 µM | Malme-3M 18.2 µM | HOP-62 33 µM | RXF 393 6.28 µM | EKVX 26.9 µM | M14 18.5 µM | IGROV-1 49.3 µM | CAKI-1 12.3 µM | ACHN 21 µM | SK-MEL-28 20.8 µM | MOLT-4 11.2 µM

NC(=O)/C=C/C(=O)O
inactive: A549 > 5000 µM | SF-539 > 5000 µM | SW-620 > 5000 µM | SNB-75 > 5000 µM | OVCAR-8 > 5000 µM | SR > 5000 µM | Malme-3M > 5000 µM | HOP-62 > 5000 µM | RXF 393 > 5000 µM | M14 > 5000 µM | IGROV-1 > 5000 µM | ACHN > 5000 µM | SK-MEL-28 > 5000 µM | MOLT-4 > 5000 µM

CCc1ccccc1NC(=O)C(=O)C1C(=O)N(c2ccccc2)N=C1N (centres undefined)
inactive: A549 > 100 µM | SF-539 > 100 µM | SW-620 > 100 µM | SNB-75 > 100 µM | OVCAR-8 > 100 µM | Malme-3M > 100 µM | HOP-62 > 100 µM | RXF 393 > 100 µM | EKVX > 100 µM | M14 > 100 µM | IGROV-1 > 100 µM | CAKI-1 > 100 µM | ACHN > 100 µM | SK-MEL-28 > 100 µM | MOLT-4 8.3 µM

COc1ccc(NC(=O)CSc2nnc(-c3ccc(NC(C)=O)cc3)o2)cc1
inactive: A549 20.9 µM | SF-539 > 10 µM | SNB-75 63.1 µM | OVCAR-8 20.7 µM | Malme-3M 20.6 µM | HOP-62 34.1 µM | RXF 393 14.5 µM | EKVX 23 µM | M14 17 µM | IGROV-1 15.5 µM | ACHN 16.7 µM | SK-MEL-28 18.7 µM | MOLT-4 17.4 µM

COc1cc2c(cc1O)[C@H](C)C(c1ccc(OC)c(OC)c1)O2 (some centres undefined)
inactive: A549 7.24 µM | SF-539 4.85 µM | SW-620 4.2 µM | SNB-75 1.95 µM | OVCAR-8 13.2 µM | Malme-3M 10.3 µM | HOP-62 9.46 µM | RXF 393 11.7 µM | EKVX 17.5 µM | M14 4.68 µM | IGROV-1 2.04 µM | CAKI-1 3.67 µM | ACHN 10.6 µM | SK-MEL-28 9.75 µM | MOLT-4 6.41 µM

Cc1c(C(=O)O)n(C)c(=O)n(C)c1=O
inactive: A549 > 100 µM | SF-539 > 100 µM | SW-620 > 100 µM | SNB-75 > 100 µM | OVCAR-8 > 100 µM | Malme-3M > 100 µM | HOP-62 > 100 µM | RXF 393 > 100 µM | EKVX > 100 µM | M14 > 100 µM | IGROV-1 > 100 µM | CAKI-1 > 100 µM | ACHN > 100 µM | SK-MEL-28 > 100 µM | MOLT-4 > 100 µM

Cc1ccc(-n2c(C)nc3c2C(=O)c2ccccc2C3=O)cc1
inactive: A549 28.9 µM | SF-539 10.4 µM | SW-620 33.5 µM | SNB-75 34.4 µM | OVCAR-8 17.4 µM | SR > 100 µM | Malme-3M 20.4 µM | HOP-62 41.2 µM | RXF 393 > 100 µM | EKVX > 100 µM | M14 58.2 µM | IGROV-1 27.9 µM | ACHN 27.9 µM | SK-MEL-28 52.6 µM | MOLT-4 > 100 µM
